According to patent US12077503B2, “Substituted cyclic amides and their use as herbicides” (FMC CORPORATION, priority 2015, dated 2024):

How the values were obtained:
Type in all cases: in vivo
[1] = test system: velvetleaf (Abutilon theophrasti); experiment: Test G Pre-Emergence Protocol; settings: Abutilon theophrasti, pre-emergence, 312 h, evaluated after 13 days
Method in brief: (§1)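 Spraying took place one day after sowing, at 15.625, 62.5 or 250 g/ha, using an acetone/water (50:50) spray solution containing 0.5% Tween 20. Plants were kept under glasshouse conditions (24/16 °C, 14 h light, 65% humidity, watered twice daily), and injury was rated 0–100 at day 13.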

[2] = test system: barnyardgrass (Echinochloa crus-galli); experiment: Test G Pre-Emergence Protocol; settings: Echinochloa crus-galli, pre-emergence, 312 h, evaluated after 13 days
Method in brief: as §1

corn (Zea mays) [3] = experiment: Test G Pre-Emergence Protocol; settings: Zea mays, pre-emergence, 312 h, evaluated after 13 days
Method in brief: as §1

[4] = test system: giant foxtail (Setaria faberi); experiment: Test G Pre-Emergence Protocol; settings: Setaria faberi, pre-emergence, 312 h, evaluated after 13 days
Method in brief: as §1

[5] = test system: redroot pigweed (Amaranthus retroflexus); experiment: Test G Pre-Emergence Protocol; settings: Amaranthus retroflexus, pre-emergence, 312 h, evaluated after 13 days
Method in brief: as §1

[6] = test system: ivy-leaved morning glory (Ipomoea hederacea); experiment: Test G Pre-Emergence Protocol; settings: Ipomoea, pre-emergence, 312 h, evaluated after 13 days
Method in brief: as §1

[7] = test system: velvetleaf (Abutilon theophrasti); experiment: Test G Post-Emergence Protocol; settings: Abutilon theophrasti, post-emergence, 312 h
Method in brief: (§2)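 Values are percent visual injury at 13 days after treatment (0 none, 100 total). Treatment was a post-emergence spray at 15.625, 62.5 or 250 g/ha on 8-day-old pot plants kept at 24/16 °C.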

[8] = test system: barnyardgrass (Echinochloa crus-galli); experiment: Test G Post-Emergence Protocol; settings: Echinochloa crus-galli, post-emergence, 312 h
Method in brief: as §2

corn (Zea mays) [9] = experiment: Test G Post-Emergence Protocol; settings: Zea mays, post-emergence, 312 h
Method in brief: as §2

[10] = test system: giant foxtail (Setaria faberi); experiment: Test G Post-Emergence Protocol; settings: Setaria faberi, post-emergence, 312 h
Method in brief: as §2

[11] = test system: redroot pigweed (Amaranthus retroflexus); experiment: Test G Post-Emergence Protocol; settings: Amaranthus retroflexus, post-emergence, 312 h
Method in brief: as §2

[12] = test system: ivy-leaved morning glory (Ipomoea hederacea); experiment: Test G Post-Emergence Protocol; settings: Ipomoea, post-emergence, 312 h
Method in brief: as §2

Molecule `CN1C[C@@H](c2cnc(Cl)c(Cl)c2)[C@H](C(=O)Nc2cccc(F)c2F)C1=O` (racemic) [Compound 1487] has a pest or weed control at 15.625 g/ha ([1]; 15.625 g ai/ha, read-out: Velvetleaf damage rating (100=total damage to plant; 0=no damage to plant)) of 0%, a pest or weed control at 62.5 g/ha ([1]; 62.5 g ai/ha, 100=total damage to plant, 0=no damage to plant, read-out: plant damage rating, Velvetleaf) of 0% and a pest or weed control at 250 g/ha ([1]; 250 g ai/ha, read-out: Velvetleaf damage rating (100=total damage to plant; 0=no damage to plant)) of 30%. The pest or weed control at 15.625 g/ha ([2]; 15.625 g ai/ha, read-out: Barnyard grass damage rating (100=total damage to plant; 0=no damage to plant)) was 30%, the pest or weed control at 62.5 g/ha ([2]; 62.5 g ai/ha, 100=total damage to plant, 0=no damage to plant, read-out: plant damage rating, Barnyardgrass) was 90% and the pest or weed control at 250 g/ha ([2]; 250 g ai/ha, read-out: Barnyardgrass damage rating (100=total damage to plant; 0=no damage to plant)) was 80%. The plant injury at 15.625 g/ha (corn (Zea mays) [3]; 15.625 g ai/ha, read-out: Corn damage rating (100=total damage to plant; 0=no damage to plant)) was 10%, the plant injury at 62.5 g/ha (corn (Zea mays) [3]; 62.5 g ai/ha, 100=total damage to plant, 0=no damage to plant, read-out: plant damage rating, Corn) was 20% and the plant injury at 250 g/ha (corn (Zea mays) [3]; 250 g ai/ha, read-out: Corn damage rating (100=total damage to plant; 0=no damage to plant)) was 70%. It also gave a pest or weed control at 15.625 g/ha ([4]; 15.625 g ai/ha, read-out: Foxtail, Giant damage rating (100=total damage to plant; 0=no damage to plant)) of 80%, a pest or weed control at 62.5 g/ha ([4]; 62.5 g ai/ha, 100=total damage to plant, 0=no damage to plant, read-out: plant damage rating, Foxtail, Giant) of 90% and a pest or weed control at 250 g/ha ([4]; 250 g ai/ha, read-out: Foxtail, Giant damage rating (100=total damage to plant; 0=no damage to plant)) of 90%. It also gave a pest or weed control at 15.625 g/ha ([5]; 15.625 g ai/ha, read-out: Pigweed, Redroot damage rating (100=total damage to plant; 0=no damage to plant)) of 0%, a pest or weed control at 62.5 g/ha ([5]; 62.5 g ai/ha, 100=total damage to plant, 0=no damage to plant, read-out: plant damage rating, Pigweed, Redroot) of 0% and a pest or weed control at 250 g/ha ([5]; 250 g ai/ha, read-out: Pigweed, Redroot damage rating (100=total damage to plant; 0=no damage to plant)) of 80%. The pest or weed control at 15.625 g/ha ([6]; 15.625 g ai/ha, read-out: Morning-glory, Ivy-leaved damage rating (100=total damage to plant; 0=no damage to plant)) was 0%, the pest or weed control at 62.5 g/ha ([6]; 62.5 g ai/ha, 100=total damage to plant, 0=no damage to plant, read-out: plant damage rating, Morningglory, Ivy-leaved) was 0% and the pest or weed control at 250 g/ha ([6]; 250 g ai/ha, read-out: Morningglory, Ivy-leaved damage rating (100=total damage to plant; 0=no damage to plant)) was 20%. For the same molecule, the pest or weed control at 15.625 g/ha ([7]; 15.625 g ai/ha, evaluated after 13 days (100=total damage to plant; 0=no damage to plant), read-out: Velvetleaf damage rating) was 0%, the pest or weed control at 62.5 g/ha ([7]; 62.5 g ai/ha, evaluated after 13 days, read-out: Velvetleaf damage rating (100=total damage to plant; 0=no damage to plant)) was 0% and the pest or weed control at 250 g/ha ([7]; 250 g ai/ha, evaluated after 13 days, read-out: damage to plant, Velvetleaf (100=total damage to plant; 0=no damage to plant)) was 20%. The pest or weed control at 15.625 g/ha ([8]; 15.625 g ai/ha, evaluated after 13 days (100=total damage to plant; 0=no damage to plant), read-out: Barnyardgrass damage rating) was 50%, the pest or weed control at 62.5 g/ha ([8]; 62.5 g ai/ha, evaluated after 13 days, read-out: Barnyardgrass damage rating (100=total damage to plant; 0=no damage to plant)) was 60% and the pest or weed control at 250 g/ha ([8]; 250 g ai/ha, evaluated after 13 days, read-out: damage to plant, Barnyardgrass (100=total damage to plant; 0=no damage to plant)) was 70%. The plant injury at 15.625 g/ha (corn (Zea mays) [9]; 15.625 g ai/ha, evaluated after 13 days (100=total damage to plant; 0=no damage to plant), read-out: Corn damage rating) was 20%, the plant injury at 62.5 g/ha (corn (Zea mays) [9]; 62.5 g ai/ha, evaluated after 13 days, read-out: Corn damage rating (100=total damage to plant; 0=no damage to plant)) was 60% and the plant injury at 250 g/ha (corn (Zea mays) [9]; 250 g ai/ha, evaluated after 13 days, read-out: damage to plant, Corn (100=total damage to plant; 0=no damage to plant)) was 70%. The pest or weed control at 15.625 g/ha ([10]; 15.625 g ai/ha, evaluated after 13 days (100=total damage to plant; 0=no damage to plant), read-out: Foxtail, Giant damage rating) was 60%, the pest or weed control at 62.5 g/ha ([10]; 62.5 g ai/ha, evaluated after 13 days, read-out: Foxtail, Giant damage rating (100=total damage to plant; 0=no damage to plant)) was 70% and the pest or weed control at 250 g/ha ([10]; 250 g ai/ha, evaluated after 13 days, read-out: damage to plant, Foxtail, Giant (100=total damage to plant; 0=no damage to plant)) was 70%. For the same molecule, the pest or weed control at 15.625 g/ha ([11]; 15.625 g ai/ha, evaluated after 13 days (100=total damage to plant; 0=no damage to plant), read-out: Pigweed, Redroot damage rating) was 20%, the pest or weed control at 62.5 g/ha ([11]; 62.5 g ai/ha, evaluated after 13 days, read-out: Pigweed, Redroot damage rating (100=total damage to plant; 0=no damage to plant)) was 0% and the pest or weed control at 250 g/ha ([11]; 250 g ai/ha, evaluated after 13 days, read-out: damage to plant, Pigweed, Redroot (100=total damage to plant; 0=no damage to plant)) was 30%. It also gave a pest or weed control at 15.625 g/ha ([12]; 15.625 g ai/ha, evaluated after 13 days (100=total damage to plant; 0=no damage to plant), read-out: Morningglory, Ivy-leaved damage rating) of 0%, a pest or weed control at 62.5 g/ha ([12]; 62.5 g ai/ha, evaluated after 13 days, read-out: Morningglory, Ivy-leaved damage rating (100=total damage to plant; 0=no damage to plant)) of 0% and a pest or weed control at 250 g/ha ([12]; 250 g ai/ha, evaluated after 13 days, read-out: damage to plant, Morningglory, Ivy-leaved (100=total damage to plant; 0=no damage to plant)) of 20%.
